Literature values, collected in patent publication US20140288899A1, “C[…] OF BINDING FREE ENERGY, C[…] OF BINDING FREE ENERGY, PROGRAM, SCREENING METHOD OF COMPOUND” (FUJITSU LIMITED, priority 2013, published 2014).

Tests used:
[1] = target: T1, FK506 BINDING PROTEIN (Homo sapiens, UniProt P62942); settings: calculation value of Wang et al., Biophysical Journal Vol. 91, 2798-2814; restriction with a spring
[2] = target: T1, FK506 BINDING PROTEIN; settings: experimental value disclosed in Holt et al., J. Am. Chem. Soc. 1993, 115, 9925-9938

T1 sequence (P62942 whole entry): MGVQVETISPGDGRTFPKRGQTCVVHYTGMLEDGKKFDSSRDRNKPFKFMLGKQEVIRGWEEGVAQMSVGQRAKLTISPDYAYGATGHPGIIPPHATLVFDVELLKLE

## CCC(C)(C)C(=O)C(=O)N1CCCC[C@H]1C(=O)O[C@H](CCc1ccccc1)c1ccccc1 [1fkg, 1,3-DIPHENYL-1-PROPYL-1-(3,3-DIMETHYL-1,2-DIOXYPENTYL)-2-PIPERIDINE CARBOXYLATE]
[1]
  binding free energy, calculation result of Comparative Example: -10.3 kcal/mol
[2]
  binding free energy, experimental value: -10.9 kcal/mol
